Measured values reported in patent publication US10875829B1, “Azetidine derivatives useful as modulators of cortical catecholaminergic neurotransmission” (Integrative Research Laboratories Sweden AB, priority 2016, dated 2020).
Where a name gives a salt, the structure may show the parent alone. Marks after values point to notes of the source that are not given here.

What was measured:
[1] = system: non-pre-treated Sprague-Dawley rats; assay: Locomotor activity in drug-naïve rats (behavioural activity, distance traveled 0-60 min); assay type: in vivo; conditions: for locomotor activity: recorded for 60 minutes, control saline, n=5
Experimental: The effect of compounds in the present disclosure on locomotor activity in drug-naïve rats was also investigated. The animals were placed in the motility meters immediately after drug administration and locomotor activity was recorded for 60 minutes (counts/60 min±SEM). The results are presented as percent of control.
Behavioural activity was measured using eight Digiscan activity monitors (RXYZM (16) TAO, Omnitech Electronics, Columbus, Ohio, USA), connected to an Omnitech Digiscan analyzer and an Apple Macintosh computer equipped with a digital interface board (NB D10-24, National Instruments, USA). Each activity monitor consisted of a quadratic metal frame (W×L=40 cm×40 cm) equipped with photo beam sensors. During measurements of behavioural activity, a rat was put in a transparent acrylic cage (W×L×H, 40×40×30 cm) which in turn was placed in the activity monitor. Each activity monitor was equipped with three rows of infrared photo beam sensors, each row consisting of 16 sensors. Two rows were placed along the front and the side of the floor of the cage, at a 90° angle, and the third row was placed 10 cm above the floor to measure vertical activity. Photo beam sensors were spaced 2.5 cm apart. Each activity monitor was fitted in an identical sound and light attenuating box containing a weak house light and a fan.
The computer software was written using object oriented programming (LabVIEW™, National instruments, Austin, Tex., USA).
Behavioural data from each activity monitor, representing the position (horizontal center of gravity and vertical activity) of the animal at each time, were recorded at a sampling frequency of 25 Hz and collected using a custom written LABView™ application. The data from each recording session were stored and analyzed with respect to distance traveled. Each behavioural recording session lasted 60 min, starting approximately 5 min after the injection of test compound.
Compounds disclosed herein have been tested for effects on spontaneous locomotor activity in non-pre-treated Sprague-Dawley rats (based on accumulated distance traveled 0-60 min post dosing), and with doses up to 100 μmol/kg (s.c.).
The animals were placed in the motility meters immediately after drug administration and locomotor activity was recorded for 60 minutes (counts/60 min). Results are presented as percent of control means. Statistical significance was assessed using Student's t-test (2 tailed) vs controls. * denotes p<0.05, ** p<0.01, *** p<0.001, n=5.

[2] = molecular target: Human Norepinephrine Transporter (NET (h)) (Homo sapiens (Human), UniProt P23975); assay: Radioligand binding assay, human norepinephrine transporter ([3H]nisoxetine); conditions: for inhibition at 10 µM: 2 h, single concentration 1.0 E-5 M, duplicate, mean values; for IC50: dose-response curves
Sequence of Human Norepinephrine Transporter (NET (h)) (P23975 whole entry): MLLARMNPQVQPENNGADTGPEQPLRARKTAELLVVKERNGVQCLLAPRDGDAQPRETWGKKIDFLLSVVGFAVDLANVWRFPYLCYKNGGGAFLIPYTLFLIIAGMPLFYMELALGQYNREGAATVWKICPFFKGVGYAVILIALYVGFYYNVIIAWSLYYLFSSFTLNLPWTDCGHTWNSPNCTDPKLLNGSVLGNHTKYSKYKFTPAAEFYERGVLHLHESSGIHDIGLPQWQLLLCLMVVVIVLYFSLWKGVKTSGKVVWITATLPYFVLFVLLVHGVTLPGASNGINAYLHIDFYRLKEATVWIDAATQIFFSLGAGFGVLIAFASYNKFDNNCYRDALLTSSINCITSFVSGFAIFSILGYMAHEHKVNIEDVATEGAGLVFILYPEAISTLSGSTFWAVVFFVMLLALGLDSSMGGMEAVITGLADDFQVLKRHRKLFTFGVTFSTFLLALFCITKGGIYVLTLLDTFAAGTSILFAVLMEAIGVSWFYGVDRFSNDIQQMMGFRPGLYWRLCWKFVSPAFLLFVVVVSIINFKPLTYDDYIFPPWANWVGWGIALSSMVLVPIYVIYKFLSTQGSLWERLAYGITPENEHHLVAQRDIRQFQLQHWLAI
Experimental: (The measurement was performed as described in Pacholczyk, T., Blakely, R. D. and Amara, S. G. (1991), Expression cloning of a cocaine- and antidepressant-sensitive human noradrenaline transporter, Nature, 350: 350)
(§1) Cell membrane homogenates (20 μg protein) are incubated for 120 min at 4° C. with 1 nM [3H]nisoxetine in the absence or presence of the test compound in a buffer containing 50 mM Tris-HCl (pH 7.4), 120 mM NaCl and 5 mM KCl. Nonspecific binding is determined in the presence of 1 μM desipramine. Following incubation, the samples are filtered rapidly under vacuum through glass fiber filters (GF/B, Packard) presoaked with 0.3% PEI and rinsed several times with ice-cold 50 mM Tris-HCl using a 96-sample cell harvester (Unifilter, Packard). The filters are dried then counted for radioactivity in a scintillation counter (Topcount, Packard) using a scintillation cocktail (Microscint 0, Packard).
(§2) The results are expressed as a percent inhibition of the control radioligand specific binding.
(§3) […] Reported values are mean values.

[3] = molecular target: Human Dopamine Transporter (DAT (h)) (Homo sapiens (Human), UniProt Q01959); assay: Radioligand binding assay, human dopamine transporter ([3H]BTCP); conditions: for inhibition at 10 µM: 2 h, single concentration 1.0 E-5 M, duplicate, mean values; for IC50: dose-response curves
Sequence of Human Dopamine Transporter (DAT (h)) (Q01959 whole entry): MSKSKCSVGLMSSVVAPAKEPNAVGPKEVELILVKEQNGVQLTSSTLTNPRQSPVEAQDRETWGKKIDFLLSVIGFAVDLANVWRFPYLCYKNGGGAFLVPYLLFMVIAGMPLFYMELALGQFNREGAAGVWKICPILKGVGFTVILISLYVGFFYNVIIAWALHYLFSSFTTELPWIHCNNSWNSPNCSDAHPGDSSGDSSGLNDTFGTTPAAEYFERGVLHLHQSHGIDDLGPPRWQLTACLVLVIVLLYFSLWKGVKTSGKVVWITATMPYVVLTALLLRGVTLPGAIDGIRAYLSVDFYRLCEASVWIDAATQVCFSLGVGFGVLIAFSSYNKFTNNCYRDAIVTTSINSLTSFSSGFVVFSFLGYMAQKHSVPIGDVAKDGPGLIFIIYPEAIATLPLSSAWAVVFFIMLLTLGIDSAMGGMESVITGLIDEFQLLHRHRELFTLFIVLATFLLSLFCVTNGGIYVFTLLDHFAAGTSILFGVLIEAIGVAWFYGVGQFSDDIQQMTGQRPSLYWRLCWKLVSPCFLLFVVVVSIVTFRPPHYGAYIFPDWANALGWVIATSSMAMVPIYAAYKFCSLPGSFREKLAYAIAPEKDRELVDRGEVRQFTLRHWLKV
Experimental: (The measurement was performed as described in Pristuba, Z. B., Wilson, J. M., Hoffman, B. J., Kish, S. J. and Nisnik, H. B. (1994), Pharmacological heterogeneity of the cloned and native human dopamine transporter: disassociation of [3H]WIN 35,428 and [3H]GBR 12,935 binding, Mol. Pharmacol., 45: 125)
Cell membrane homogenates (20 μg protein) are incubated for 120 min at 4° C. with 4 nM
as §1, with “[3H]BTCP” for “Cell membrane homogenates (20 μg protein) are incubated for 120 min at 4° C. with 1 nM [3H]nisoxetine”, “7.4) and 100” for “7.4), 120”, “NaCl.” for “NaCl and 5 mM KCl.”, “10” for “1”, “BTCP.” for “desipramine.”
as §2, §3

[4] = molecular target: Human 5-HT Transporter (SERT (h)) (Homo sapiens (Human), UniProt P31645); assay: Radioligand binding assay, human 5-HT transporter ([3H]imipramine); conditions: for inhibition at 10 µM: 1 h, single concentration 1.0 E-5 M, duplicate, mean values; for IC50: dose-response curves
Sequence of Human 5-HT Transporter (SERT (h)) (P31645 whole entry): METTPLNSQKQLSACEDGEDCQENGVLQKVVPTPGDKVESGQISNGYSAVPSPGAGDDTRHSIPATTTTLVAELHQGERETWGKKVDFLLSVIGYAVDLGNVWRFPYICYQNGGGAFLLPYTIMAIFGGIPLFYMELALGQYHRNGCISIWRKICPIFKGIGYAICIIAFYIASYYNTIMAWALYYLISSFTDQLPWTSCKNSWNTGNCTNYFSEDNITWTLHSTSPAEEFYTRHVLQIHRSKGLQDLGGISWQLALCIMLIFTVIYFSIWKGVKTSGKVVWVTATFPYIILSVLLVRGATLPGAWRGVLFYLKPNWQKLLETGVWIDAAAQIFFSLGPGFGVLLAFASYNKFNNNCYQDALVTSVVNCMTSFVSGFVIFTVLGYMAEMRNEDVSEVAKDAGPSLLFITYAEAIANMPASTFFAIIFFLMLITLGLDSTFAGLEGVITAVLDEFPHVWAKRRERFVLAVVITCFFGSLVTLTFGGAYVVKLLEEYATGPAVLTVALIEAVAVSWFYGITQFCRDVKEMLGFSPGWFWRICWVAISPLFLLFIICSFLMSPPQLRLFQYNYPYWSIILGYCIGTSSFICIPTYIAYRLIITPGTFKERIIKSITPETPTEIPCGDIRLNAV
Experimental: (The measurement was performed as described in Tatsumi, M., Jansen, K., Blakely, R. D. and Richelson, E. (1999), Pharmacological profile of neuroleptics at human monoamine transporters, Eur. J. Pharmacol.
Cell membrane homogenates (12 μg protein) are incubated for 60 min at 22° C. with 2 nM [3H]imipramine in the absence or presence of the test compound in a buffer containing 50 mM Tris-HCl (pH 7.4), 120 mM NaCl, 5 mM KCl and 0.1% BSA.
Nonspecific binding is determined in the presence of 10 μM imipramine.
Following incubation, the samples are filtered rapidly under vacuum through glass fiber filters (GF/B, Packard) presoaked with 0.3% PEI and rinsed several times with an ice-cold buffer containing 50 mM Tris-HCl and 150 mM NaCl using a 96-sample cell harvester (Unifilter, Packard). The filters are dried then counted for radioactivity in a scintillation counter (Topcount, Packard) using a scintillation cocktail (Microscint 0, Packard).
The results are expressed as a percent inhibition of the control radioligand specific binding
as §3

[5] = ratio of IC50 values of Table 6
[6] = at the highest tested dose (100 μmol/kg s.c.)

| inhibition at 10 µM [2] | IC50 [2] | inhibition at 10 µM [3] | IC50 [3] | inhibition at 10 µM [4] | IC50 [4] | fold more potent than Example 1A at NET [2, 5] | fold more potent than Example 1A at DAT [3, 5] | fold more potent than Example 1A at SERT [4, 5] | Structure (SMILES) | locomotor activity ([1]; 11 μmol/kg s.c.) | locomotor activity ([1]; 33 μmol/kg s.c.) | locomotor activity ([1]; 100 μmol/kg s.c.) | effect on locomotor activity (in words) ([1]; at all tested doses (11, 33, 100 μmol/kg s.c.)) | effect on locomotor activity (in words) ([1]; at the two highest doses (33, 100 μmol/kg s.c.)) | effect on locomotor activity (in words) [1, 6] |
| --- | --- | --- | --- | --- | --- | --- | --- | --- | --- | --- | --- | --- | --- | --- | --- |
| 37% | 79 µM | 49% | 21 µM | 59% | 34 µM | – | – | – | Fc1cccc(OC2CNC2)c1F [Example 1A, 3-(2,3-difluorophenoxy)azetidine hydrochloric acid salt] | 135 ± 17 % of control means | 163 ± 17* % of control means | 121 ± 23 % of control means | – | – | – |
| 25% | – | 25% | – | 29% | – | – | – | – | Fc1cc(F)cc(OC2CNC2)c1 [Example 52C, 3-(3,5-difluorophenoxy)azetidine hydrochloric acid salt] | 128 ± 25 % of control means | 74 ± 24 % of control means | 73 ± 15 % of control means | – | – | – |

The next lines start with the molecule.

| Structure (SMILES) | inhibition at 10 µM [2] | IC50 [2] | inhibition at 10 µM [3] | IC50 [3] | inhibition at 10 µM [4] | IC50 [4] | fold more potent than Example 1A at NET [2, 5] | fold more potent than Example 1A at DAT [3, 5] | fold more potent than Example 1A at SERT [4, 5] | locomotor activity ([1]; 11 μmol/kg s.c.) | locomotor activity ([1]; 33 μmol/kg s.c.) | locomotor activity ([1]; 100 μmol/kg s.c.) | effect on locomotor activity (in words) ([1]; at all tested doses (11, 33, 100 μmol/kg s.c.)) | effect on locomotor activity (in words) ([1]; at the two highest doses (33, 100 μmol/kg s.c.)) | effect on locomotor activity (in words) [1, 6] |
| --- | --- | --- | --- | --- | --- | --- | --- | --- | --- | --- | --- | --- | --- | --- | --- |
| Fc1cc(F)cc(OC2CNC2)c1.O=C(O)C(O)C(O)C(=O)O [Example 52B, 3-(3,5-difluorophenoxy)azetidine (+)-tartaric acid salt] | – | – | – | – | – | – | – | – | – | 93 ± 15 % of control means | 30 ± 5* % of control means | 46 ± 8 % of control means | – | – | – |
| Fc1ccc(F)c(OC2CNC2)c1F [Example 20, 3-(2,3,6-trifluorophenoxy)azetidine hydrochloric acid salt] | 10% | – | 25% | – | 6% | – | – | – | – | – | – | – | – | – | – |
| Fc1cc(F)c(F)c(OC2CNC2)c1 [Example 2, 3-(2,3,5-trifluorophenoxy)azetidine hydrochloric acid salt] | 25% | – | 12% | – | 12% | – | – | – | – | 66 ± 8** % of control means | 57 ± 5*** % of control means | 21 ± 5*** % of control means | significant reduction | – | – |
| Fc1cc(F)c(F)c(OC2CNC2)c1F [Example 3, 3-(2,3,5,6-tetrafluorophenoxy)-azetidine hydrochloric acid salt] | 25% | – | 10% | – | 11% | – | – | – | – | 114 ± 18 % of control means | 71 ± 26 % of control means | 44 ± 8* % of control means | – | significant reduction | – |
| Clc1ccc(OC2CNC2)cc1Cl [Reference Compound, 3-(3,4-dichlorophenoxy)azetidine hydrochloric acid salt, reference compound] | 84% | 2.2 µM | 79% | 3.5 µM | 92% | 1.3 µM | 36 fold | 6 fold | 26 fold | 132 ± 10 % of control means | 108 ± 23 % of control means | 323 ± 50** % of control means | – | – | significant increase |
| CCN1CC(Oc2c(F)c(F)cc(F)c2F)C1 [Example 39, 1-ethyl-3-(2,3,5,6-tetrafluorophenoxy)azetidine hydrochloric acid salt] | 11% | – | 17% | – | 1.5% | – | – | – | – | 132 ± 14 % of control means | 103 ± 18 % of control means | 78 ± 19 % of control means | – | – | significant reduction |
